Measurements: patent US8389247B2, “Physiogenomic method for predicting diabetes and metabolic syndromes induced by psychotropic drugs” (priority 2006, dated 2013)

How the values were obtained:
[1] = Physiogenomic SNP association screen: single-SNP coefficients for metabolic syndrome outcomes in patients on psychotropic drugs
Source text: Various SNPs associated with, for example, the observation of various parameters of metabolic syndromes in patients on psychotropic drugs were screened. The endpoints analyzed were the blood levels of LDL, HDL, and glucose; blood pressure; body mass index; waist circumference; and metabolic syndromes index. The physiogenomic model was developed using the following procedure: 1) Establish a covariate model using only the demographic and clinical variables, 2) Screen for associated genetic markers by testing each SNP against the unexplained residual of the covariate model, and 3) Establish a revised model incorporating the significant associations from the SNP screen. All models are simple linear regression models, but other well-known statistical methods are contemplated to be useful.
In the SNP screen (step 2), the p-values for each SNP were obtained by adding the SNP to the covariate model and comparing the resulting model improvement with up to 10,000 simulated model improvements using the same data set, but with the genotype data randomly permuted to remove any true association. This method produces a p-value that is a direct, unbiased, and model-free estimate of the probability of finding a model as good as the one tested when the null hypothesis of no association is true. All SNPs with a screening p-value of better than 0.003 were selected to be included in the physiogenomic model (step 3).
Data Analysis. Covariates were analyzed using multiple linear regression and the stepwise procedure. An extended linear model was constructed including the significant covariate and the SNP genotype. SNP genotype was coded quantitatively as a numerical variable indicating the number of minor alleles: 0 for major homozygotes, 1 for heterozygotes, and 2 for minor homozygotes. The F-statistic p-value for the SNP variable was used to evaluate the significance of association. The validity of the p-values were tested by performance of an independent calculation of the p-values using permutation testing. To account for the multiple testing of multiple SNPs, adjusted p-values were calculated using Benjamini and Hochbergs false discovery rate (FDR) procedure [Reinere A, Yekutiele D, Benjamini Y: Identifying differentially expressed genes using false discovery rate controlling procedures. Bioinformatics 19:368-375 (2003); Benjamini Y, Hochberg Y: Controlling the false discovery rate: a practical and powerful approach to multiple testing. Journal of the Royal Statistical Society, Series B 57:289-300 (1995); Benjamini Y, Hochberg Y: On the adaptive control of the false discovery rate in multiple testing with independent statistics. Journal of Educational and Behavioral Statistics 25:60-83 (2000)]. In addition, the power for detecting an association based on the Bonferroni multiple comparison adjustment was evaluated. For each SNP, the effect size in standard deviations that was necessary for detection of an association at a power of 80% (20% false negative rate) was calculated using the formula: […]

[2] = Outcome variables of patients on each psychotropic drug broken down by demographic factors (Covariates tables); assay type: in vivo, human
[3] = Source text: b. Model Building. […] A model was developed for the purpose of predicting a given response (Y) to psychotropic drugs. A linear model for subjects in a group of patients subjected to psychotropic drugs was used in which the response of interest can be expressed as follows:
[formula] where Mi are the dummy marker variables indicating the presence of specified genotypes and Dj are demographic and clinical covariates. The model parameters that are to be estimated from the data are R0, αi and βj. […] S-plus provides very good support for algorithms that provide these estimates for the initial linear regression models, as well other generalized linear models that may be used when the error distribution is not normal. For continuous variables, generalized additive models, including cubic splines in order to appropriately assess the form for the dose-response relationship may also be considered [Hastie T, Tibshirani R. Generalized additive models. Stat. Sci. 1: 297-318 (1986); Durrleman S, Simon R. Flexible regression models with cubic splines. Statistics in Medicine 8:551-561 (1989)].
In addition to optimizing the parameters, model refinement is performed. The first phase of the regression analysis will consist of considering a set of simplified models by eliminating each variable in turn and re-optimizing the likelihood function. The ratio between the two maximum likelihoods of the original vs. the simplified model then provides a significance measure for the contribution of each variable to the model.
Each physiotype in this particular embodiment consists of a selection of markers, and intercept value (C), and a coefficient (ci) for each marker. […] The predicted LDL response for a given individual is then given by the formula:
[formula] where C is the intercept, the ci are the coefficients and the gi are the genotypes, coded 0 for the wild type allele homozygote, 1 for the heterozygote, and 2 for the variant allele homozygote.

[4] = cited from earlier work

With O=C1CCc2ccc(OCCCCN3CCN(c4cccc(Cl)c4Cl)CC3)cc2N1 [Arapiprazole, arapiprazole] the “Coeff. LDL Cholesterol” value ([1]; SNP rs264 LPL allele AG p 3.00E−03) was −26.5842, the “Coeff. LDL Cholesterol” value ([1]; SNP rs7412 APOE allele TC p 1.42E−02) was −26.3527 and the “Coeff. LDL Cholesterol” value ([1]; SNP rs140700 SLC6A4 allele AG p 1.76E−02) was 34.06. The “Coeff. LDL Cholesterol” value ([1]; SNP rs231460 PYY allele TC p 7.02E−03) was −22.8702, the “Coeff. LDL Cholesterol” value ([1]; SNP rs701492 GAD1 allele TC p 1.25E−04) was −41.2222 and the “Coeff. LDL Cholesterol” value ([1]; SNP rs1057910 CYP2C9 allele AC p 9.03E−04) was 25.75. The “Coeff. LDL Cholesterol” value ([1]; SNP rs1176744 HTR3B allele TG p 2.77E−02) was −14.3889, the “Coeff. LDL Cholesterol” value ([1]; SNP rs1805002 CCKBR allele AG p 3.93E−02) was −32.875 and the “Coeff. LDL Cholesterol” value ([1]; SNP rs1871143 GYS2 allele TG p 4.09E−02) was −14.1588. The “Coeff. LDL Cholesterol” value ([1]; SNP rs2070937 HP allele AG p 3.68E−02) was 16.59, the “Coeff. LDL Cholesterol” value ([1]; SNP rs2192752 IL1R1 allele AC p 3.35E−02) was 19.88 and the “Coeff. LDL Cholesterol” value ([1]; SNP rs2227852 DRD5 allele AG p 1.36E−02) was −28.1852. The “Coeff. LDL Cholesterol” value ([1]; SNP rs2229416 ACACA allele AG p 1.41E−02) was −29.2143, the “Coeff. LDL Cholesterol” value ([1]; SNP rs2306179 GYS2 allele AG p 2.72E−02) was −15.1786 and the “Coeff. LDL Cholesterol” value ([1]; SNP rs3760396 CCL2 allele GC p 4.10E−02) was −15.8942. For the same compound, the “Coeff. LDL Cholesterol” value ([1]; SNP rs3762611 GABRA4 allele AG p 1.49E−02) was −18.7032, the “Coeff. LDL Cholesterol” value ([1]; SNP rs3822222 CCKAR allele TC p 8.57E−03) was 24.98 and the “Coeff. LDL Cholesterol” value ([1]; SNP rs4795180 ACACA allele TG p 1.41E−02) was −29.2143. For the same compound, the “Coeff. LDL Cholesterol” value ([1]; SNP rs5030390 ICAM1 allele AG p 1.30E−02) was −27.8333, the “Coeff. LDL Cholesterol” value ([1]; SNP rs7816340 ADRA1A allele TC p 4.36E−02) was −25.5911 and the “Coeff. LDL Cholesterol” value ([1]; SNP rs9904270 RARA allele TC p 2.39E−03) was −37.1182. For the same compound, the “Coeff. LDL Cholesterol” value ([1]; SNP rs10509676 CYP2C19 allele TA p 1.50E−02) was −24.25, the LDL ([2]; Age 20-30, N 8) was 90.5 and the LDL ([2]; Age 30-40, N 16) was 97.19. For the same compound, the LDL ([2]; Age 40-50, N 8) was 94.25, the LDL ([2]; Age 50-60, N 4) was 83 and the LDL ([2]; All, N 36) was 93.47. It also gave an LDL ([2]; Heritage African Am, N 3) of 104, an LDL ([2]; Heritage Caucasian, N 33) of 92.52 and an LDL ([2]; female, N 10) of 87. The BM ([2]; human, in vivo) was 86.58, the Waist ([2]; human, in vivo) was 101.34 and the dBP ([2]; human, in vivo) was 75.86. The sBP ([2]; human, in vivo) was 122.17, the LDL ([2]; male, N 26) was 95.96 and the LDL ([2]; patients on the named drug) was 93.47. For the same compound, the “Intercept (C), Blood Glucose Physiotype” value [3] was “Intercept (C) = 0.3665”, the “Intercept (C), Body Mass Physiotype” value [3] was “Intercept (C) = 0.1845” and the “Intercept (C), Diastolic Blood Pressure Physiotype” value [3] was “Intercept (C) = −0.05506”. For the same compound, the “Intercept (C), HDL Cholesterol Physiotype” value [3] was “Intercept (C) = −0.3706”, the “Intercept (C), LDL Cholesterol Physiotype” value [3] was “Intercept (C) = 0.2441” and the “Intercept (C), Log (TG) Physiotype” value [3] was “Intercept (C) = 0.9167”. For the same compound, the “Intercept (C), Systolic Blood Pressure Physiotype” value [3] was “Intercept (C) = −0.1862” and the “Intercept (C), Waist circumference Physiotype” value [3] was “Intercept (C) = −0.888”.

In the case of O=C1Cc2cc(CCN3CCN(c4nsc5ccccc45)CC3)c(Cl)cc2N1 [Ziprasidone, ziprasidone], the “Coeff. LDL Cholesterol” value ([1]; SNP rs40318, gene PIK3R1, allele TC, p 4.80E−02) is reported as 22.72, the “Coeff. LDL Cholesterol” value ([1]; SNP rs1322783, gene DISC1, allele TC, p 1.26E−02) is reported as −27.8566 and the “Coeff. LDL Cholesterol” value ([1]; SNP rs1614845, gene HRH3, allele TC, p 4.20E−02) is reported as −21.1697. For the same compound, the “Coeff. LDL Cholesterol” value ([1]; SNP rs1951795, gene HIF1A, allele AC, p 2.81E−02) was 17.21, the “Coeff. LDL Cholesterol” value ([1]; SNP rs2067477, gene CHRM1, allele AC, p 4.47E−02) was −23.7833 and the “Coeff. LDL Cholesterol” value ([1]; SNP rs2228139, gene IL1R1, allele GC, p 1.74E−02) was −42.4134. The “Coeff. LDL Cholesterol” value ([1]; SNP rs2269935, gene PFKM, allele AC, p 1.38E−02) was −29.0481, the “Coeff. LDL Cholesterol” value ([1]; SNP rs2301108, gene HIF1A, allele AG, p 4.60E−03) was 27.41 and the “Coeff. LDL Cholesterol” value ([1]; SNP rs2856929, gene PKM2, allele AG, p 2.55E−02) was −21.0303. For the same compound, the “Coeff. HDL Cholesterol” value ([1]; SNP rs3757868, gene ACHE, allele AG, p 2.11E−02) was 9.221, the “Coeff. Ratio of Total Cholesterol to HDL Cholesterol” value ([1]; SNP rs3757868, gene ACHE, allele AG, p 2.47E−02) was −0.8869 and the “Coeff. LDL Cholesterol” value ([1]; SNP rs3816873, gene MTP, allele TC, p 2.73E−02) was −19.1531. For the same compound, the “Coeff. LDL Cholesterol” value ([1]; SNP rs6700734, gene TNFSF6, allele AG, p 1.15E−02) was 21.53, the “Coeff. LDL Cholesterol” value ([1]; SNP rs6967107, gene WBSCR14, allele AC, p 5.00E−02) was −28.3763 and the “Coeff. LDL Cholesterol” value ([1]; SNP rs6976017, gene CYP3A5, allele AG, p 4.34E−03) was −45.408. The “Coeff. LDL Cholesterol” value ([1]; SNP rs7816340, gene ADRA1A, allele TC, p 4.22E−02) was 24.97, the “Coeff. LDL Cholesterol” value ([1]; SNP rs10082776, gene RARG, allele AG, p 1.92E−02) was −24.15 and the LDL ([2]; Age 20-30) was 79.20. For the same compound, the LDL ([2]; Age 30-40) was 98.42, the LDL ([2]; Age 40-50) was 75.18 and the LDL ([2]; Age 50-60) was 135.00. The LDL ([2]; Age 60-70) was 154.00, the LDL ([2]; Age <20) was 89.50 and the LDL ([2]; All) was 88.32. It also gave an LDL ([2]; Gender female) of 98.11, an LDL ([2]; Gender male) of 79.05 and an LDL ([2]; Heritage AA) of 63.17. For the same compound, the LDL ([2]; Heritage Cauc.) was 93.19, the “Log (TG)” value ([2]; human, in vivo) was 4.968 and the LDL ([2]; patients on the named drug) was 88.32.

For CN1CCN(C2=Nc3cc(Cl)ccc3Nc3ccccc32)CC1 [clozapine], the “treated patients with induced weight gain, diabetes and other metabolic derangements” value [4] is listed as 50%.
